Results: ChEMBL document CHEMBL3217505, “Synthesis and biological evaluation of a new class of anti-brucella compounds targeting histidinol dehydrogenase: -O-arylketones and -S-arylketones derived from histidine” (Medchemcomm, 2011)

Target: T1, Histidinol dehydrogenase (Brucella suis biovar 1 (strain 1330), UniProt Q8G2R2)
T1 sequence (Q8G2R2 whole entry): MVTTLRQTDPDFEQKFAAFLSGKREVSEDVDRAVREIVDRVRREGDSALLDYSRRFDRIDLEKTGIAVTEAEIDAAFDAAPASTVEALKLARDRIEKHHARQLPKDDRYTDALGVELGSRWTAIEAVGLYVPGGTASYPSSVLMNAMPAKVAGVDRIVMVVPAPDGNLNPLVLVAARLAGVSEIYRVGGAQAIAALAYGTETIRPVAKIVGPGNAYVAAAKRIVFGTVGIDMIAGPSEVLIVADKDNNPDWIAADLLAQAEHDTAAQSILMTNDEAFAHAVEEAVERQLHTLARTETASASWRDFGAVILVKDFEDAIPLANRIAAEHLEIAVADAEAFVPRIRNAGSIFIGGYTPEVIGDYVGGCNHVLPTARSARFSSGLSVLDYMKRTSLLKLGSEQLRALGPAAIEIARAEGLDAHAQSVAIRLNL
Test: Inhibition of Brucella suis 1330 His6-tagged HDH expressed in Escherichia coli BL21 (DE3) using L-histidinol as substrate assessed as NADH formation preincubated for 5 mins followed by substrate addition

Row | Structure (SMILES) | IC50 [nM]
1 | N[C@@H](Cc1c[nH]cn1)C(=O)CS | 2100
2 | N[C@@H](Cc1c[nH]cn1)C(=O)CSc1ccccc1 | 7100
3 | Cc1ccc(SCC(=O)[C@@H](N)Cc2c[nH]cn2)cc1 | 39500
4 | N[C@@H](Cc1c[nH]cn1)C(=O)CSc1ccc(F)cc1 | 3100
5 | N[C@@H](Cc1c[nH]cn1)C(=O)CSc1ccc2ccccc2c1 | 3300
6 | N[C@@H](Cc1c[nH]cn1)C(=O)CSc1ccc(Br)cc1 | 2800
7 | N[C@@H](Cc1c[nH]cn1)C(=O)CSc1c(F)c(F)c(F)c(F)c1F | 19200
8 | N[C@@H](Cc1c[nH]cn1)C(=O)CO | 24.3
9 | N[C@@H](Cc1c[nH]cn1)C(=O)COc1ccccc1 | 3650
10 | Cc1ccc(OCC(=O)[C@@H](N)Cc2c[nH]cn2)cc1 | 208
11 | N[C@@H](Cc1c[nH]cn1)C(=O)COc1ccc(F)cc1 | 4700
12 | N[C@@H](Cc1c[nH]cn1)C(=O)COc1ccc2ccccc2c1 | 108
13 | N[C@@H](Cc1c[nH]cn1)C(=O)COc1ccc(Br)cc1 | 1600
14 | N[C@@H](Cc1c[nH]cn1)C(=O)COc1c(F)c(F)c(F)c(F)c1F | 2780
